22 compounds from patent publication US11104690B2, “Indazole derivatives useful as inhibitors of diacylglyceride O-acyltransferase 2” (Merck Sharp & Dohme Corp., priority 2016, dated 2021) can be followed below.

Sequence of Human DGAT2 (Q96PD7 whole entry): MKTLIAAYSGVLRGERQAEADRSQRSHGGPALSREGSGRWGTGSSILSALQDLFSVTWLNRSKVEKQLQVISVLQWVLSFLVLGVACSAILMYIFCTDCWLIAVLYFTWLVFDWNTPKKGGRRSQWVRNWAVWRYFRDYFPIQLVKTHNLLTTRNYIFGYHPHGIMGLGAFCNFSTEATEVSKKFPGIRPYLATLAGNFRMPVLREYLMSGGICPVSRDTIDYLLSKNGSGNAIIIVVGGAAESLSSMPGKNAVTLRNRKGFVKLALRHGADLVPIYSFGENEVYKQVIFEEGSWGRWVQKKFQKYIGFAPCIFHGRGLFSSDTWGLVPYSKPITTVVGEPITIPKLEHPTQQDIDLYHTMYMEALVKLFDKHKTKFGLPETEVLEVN

The test has as its target Human DGAT2 (Homo sapiens (Human), UniProt Q96PD7). The test can be described thus: DGAT2 Enzymatic Activity Assay (triolein formation, LC/MS/MS). The conditions noted are these: hDGAT2 Sf-9 membrane prep; 25 μM diolein, 10 μM oleoyl-CoA; room temperature. It is filed as biochemical. As for the experimental part:
Sf-9 insect cells were maintained in Grace's insect cell culture medium with 10% heated-inactivated fetal bovine serum, 1% Pluronic F-68 and 0.14 μg/m Kanamycine sulfate in Erlenmeyer flasks at 28° C. in a shaker incubator. After infection with untagged hDGAT2 baculovirus at multiplicity of infection (MOI) 0.1 for 48 hours, cells were harvested. Cell pellets were suspended in buffer containing 10 mM Tris-HC (pH 7.5), 1 mM EDTA (pH 8.0), 250 mM sucrose and Complete Protease Inhibitor Cocktail (Roche Diagnostics Corp., Indianapolis, Ill.), and sonicated on ice. Membrane fractions were isolated by ultracentrifugation (100,000×g pellet), resuspended in the same buffer, and frozen (−80° C.) for later use. The protein concentration was determined with the BCA Protein Assay kit (Pierce Biotechnology Inc., Rockford, Ill.). Expression of protein levels was analyzed by immunoblotting with goat polyclonal DGAT2 antibody C-15 and donkey anti-goat IgG HRP (Santa Cruz Biotechnology, Inc., Santa Cruz, Calif.) followed by detection with ECL reagent (GE Healthcare, Piscataway, N.J.).
LC/MS/MS analyses were performed using Thermal Fisher's LX4-TSQ Vantage system. This system consists of an Agilent binary high-performance liquid chromatography (HPLC) pumps and a TSQ Vantage triple quadrupole MS/MS instrument. For each sample, 2 μL samples from the top organic layer of in-plate liquid-liquid extraction were injected onto a Thermo Betabasic C4 column (2.1 mm×20 mm, 5 μm particle size). The samples were then eluted using the following conditions; mobile phase: MeOH/water with 0.1% ammonium format=92/8 (v/v), flow rate: 1 mL/min, temperature: 25 C. Data was acquired in positive mode using a heated electrospray ionization (HESI) interface. The operational parameters for the TSQ Vantage MS/MS instrument were a spray voltage of 3000 V, capillary temperature of 280° C., vaporizer temperature 400° C., shealth gas 60 arbitrary unit, Aux gas 40 arbitrary units, S-lens 113 and collision gas 0.16 Pascals. […] (SRM) chromatograms of triolein (Q1: 902.9>Q3:602.3) and internal standard ([…]) were collected for 40 sec. The peak area was integrated by Xcalibur Quan software. The ratio between the triolein generated in the reaction and spiked in internal standard was used to generate percentage inhibition and IC50 values. Compound percentage inhibition was calculated by the following formula: Inhibition %=1−[(compound response−low control)/(high control−low control)]×100%. Potent compounds were titrated and IC50 were calculated by 4 parameter sigmoidal curve fitting formula.
DGAT2 activity was determined by measuring the amount of enzymatic product triolein (1,2,3-Tri(cis-9-octadecenoyl)glycerol) using the membrane prep mentioned above. The assay was carried out in deep well 384 plates in a final volume of 40 μL at room temperature. The assay mixture contained the following: assay buffer (100 mM Tris.Cl, pH 7.0, 20 mM MgCl2, 5% ethanol), 25 μM of diolein, 10 μM of oleoyl-CoA and 10 ng/μL of DGAT2 membrane.
Consider `CC1(NC(=O)c2ccc3c(-c4cccc(C(C)(C)O)c4)nn(-c4ccc(F)cc4)c3c2)CCS(=O)(=O)C1` (racemic) [Example 150, 1-(4-fluorophenyl)-3-[3-(1-hydroxy-1-methylethyl)phenyl]-N-(3-methyl-1,1-dioxidotetrahydrothiophen-3-yl)-1H-indazole-6-carboxamide], for which 311 nM corresponded to half-maximal inhibition (IC50).

The compound `CC1(NC(=O)c2ccc3c(-c4ccccc4Cl)nn(-c4ccccn4)c3c2)CCS(=O)(=O)C1` (single isomer, unassigned) [Example 174-A, 3-(2-chlorophenyl)-N-(3-methyl-1,1-dioxidotetrahydrothiophen-3-yl)-1-pyridin-2-yl-1H-indazole-6-carboxamide] had a 50% inhibitory concentration (IC50) of 71 nM.

`C[C@@H]1CC[C@@H](O)[C@H]1NC(=O)c1ccc2c(-c3ccccc3Cl)nn(-c3ccc(F)cc3)c2c1` [Example 72, 3-(2-chlorophenyl)-1-(4-fluorophenyl)-N-[(1S,2R,5R)-2-hydroxy-5-methylcyclopentyl]-1H-indazole-6-carboxamide] yielded an IC50 of 22 nM.

For `CC1(NC(=O)c2ccc3c(-c4cccc(C5CC5)c4)nn(-c4ccc(F)cn4)c3c2)CCS(=O)(=O)C1` (single isomer, unassigned) [Example 125-A, 3-(3-cyclopropylphenyl)-1-(5-fluoropyridin-2-yl)-N-(3-methyl-1,1-dioxidotetrahydrothiophen-3-yl)-1H-indazole-6-carboxamide], 4.2 nM corresponded to half-maximal inhibition (IC50). Against the preceding compound, the IC50 is about 5.2-fold lower.

The compound `COC(=O)C1(NC(=O)c2ccc3c(-c4ccccc4Cl)nn(-c4ccc(F)cc4)c3c2)CCS(=O)(=O)C1` (racemic) [Example 90, methyl 3-({[3-(2-chlorophenyl)-1-(4-fluorophenyl)-1H-indazol-6-yl]carbonyl}amino)tetra-hydrothiophene-3-carboxylate 1,1-dioxide] had a half-maximal inhibitory concentration (IC50) of 90 nM.

The compound `CC1(NC(=O)c2ccc3c(-c4cc(C#N)ccc4Cl)nn(-c4ccc(F)cc4)c3c2)CCS(=O)(=O)C1` (single isomer, unassigned) [Example 119-B, 3-(2-chloro-5-cyanophenyl)-1-(4-fluorophenyl)-N-(3-methyl-1,1-dioxidotetrahydrothiophen-3-yl)-1H-indazole-6-carboxamide] had an IC50 of 2.5 nM.

`CC(C)[C@@H](CO)NC(=O)c1ccc2c(-c3cccc(C4CC4)c3)nn(-c3ccc(F)cn3)c2c1` [Example 124, 3-(3-cyclopropylphenyl)-1-(5-fluoropyridin-2-yl)-N-[(1S)-1-(hydroxymethyl)-2-methylpropyl]-1H-indazole-6-carboxamide]: half-maximal inhibition (IC50) required 4.4 nM.

As for `O=C(N[C@@H]1CCCC[C@@H]1O)c1ccc2c(-c3ccccc3Cl)nn(-c3ccc(F)cc3)c2c1` (racemic) [Example 66], the IC50 came out at 68 nM.

As for `CC1(NC(=O)c2ccc3c(-c4ccccc4)nn(-c4ccc(F)cc4)c3c2)CCS(=O)(=O)C1` (single isomer, unassigned) [Example 162-A, 1-(4-fluorophenyl)-N-(3-methyl-1,1-dioxidotetrahydrothiophen-3-yl)-3-phenyl-1H-indazole-6-carboxamide], the midpoint of inhibition, the IC50, lay at 157 nM.

Compound `O=C(NC1CCOC1)c1ccc2c(-c3ccccc3Cl)nn(-c3ccc(F)cc3)c2c1` (racemic) [Example 77, 3-(2-chlorophenyl)-1-(4-fluorophenyl)-N-(tetrahydrofuran-3-yl)-1H-indazole-6-carboxamide] registered an IC50 of 59 nM.

As to `O=C(NCCS(=O)(=O)Nc1cccnc1)c1ccc2c(-c3ccccc3Cl)nn(-c3ccc(F)cc3)c2c1` [Example 60, 3-(2-chlorophenyl)-1-(4-fluorophenyl)-N-[2-(pyridin-3-ylsulfamoyl)ethyl]-1H-indazole-6-carboxamide], the concentration for half-maximal inhibition (IC50) is 16 nM.

For the compound `CC(Cc1ccccn1)NC(=O)c1ccc2c(-c3ccccc3Cl)nn(-c3ccc(F)cc3)c2c1` (racemic) [Example 112, 3-(2-chlorophenyl)-1-(4-fluorophenyl)-N-(1-methyl-2-pyridin-2-ylethyl)-1H-indazole-6-carboxamide], the 50% inhibitory concentration (IC50) turned out to be 593 nM. Against the preceding compound, the IC50 is about 37-fold higher.

In the case of `CC(C)[C@@H](CO)NC(=O)c1ccc2c(-c3cc(C#N)ccc3Cl)nn(-c3ccc(F)cc3)c2c1` [Example 123, 3-(2-chloro-5-cyanophenyl)-1-(4-fluorophenyl)-N-[(1S)-1-(hydroxymethyl)-2-methylpropyl]-1H-indazole-6-carboxamide], the IC50 was 3.8 nM.

For the compound `C[C@@H](NC(=O)c1ccc2c(-c3ccccc3Cl)nn(-c3ccc(F)cc3)c2c1)[C@@H](O)c1ccccc1` [Example 106, 3-(2-chlorophenyl)-1-(4-fluorophenyl)-N-[(1R,2S)-2-hydroxy-1-methyl-2-phenylethyl]-1H-indazole-6-carboxamide], the IC50 was 832 nM.

As for `CC[C@H](C)[C@@H](CO)NC(=O)c1ccc2c(-c3ccccc3Cl)nn(-c3ccc(F)cc3)c2c1` [Example 103, 3-(2-chlorophenyl)-1-(4-fluorophenyl)-N-[(1S,2S)-1-(hydroxymethyl)-2-methylbutyl]-1H-indazole-6-carboxamide], half-maximal inhibition (IC50) was put at 31 nM. This IC50 is about 27-fold lower than that of the compound before.

As to `O=C(NC1CCS(=O)(=O)CC1)c1ccc2c(-c3ccccc3Cl)nn(-c3ccc(F)cc3)c2c1` [Example 24, 3-(2-chlorophenyl)-N-(1,1-dioxidotetrahydro-2H-thiopyran-4-yl)-1-(4-fluorophenyl)-1H-indazole-6-carboxamide], the midpoint of inhibition, the IC50, lay at 61 nM.

As to `CC(C)n1nc(-c2ccccc2Cl)c2ccc(C(=O)NC3CCS(=O)(=O)C3)cc21` (stereo not shown) [Example 169, 3-(2-chlorophenyl)-N-(1,1-dioxidotetrahydrothiophen-3-yl)-1-(1-methylethyl)-1H-indazole-6-carboxamide], it took 364 nM to reach half-maximal inhibition (IC50).

In the case of `COc1cc(-c2nn(-c3ccc(F)cc3)c3cc(C(=O)NC4(C)CCS(=O)(=O)C4)ccc23)ccn1` (single isomer, unassigned) [Example 140-A, 1-(4-fluorophenyl)-3-(2-methoxypyridin-4-yl)-N-(3-methyl-1,1-dioxidotetrahydrothiophen-3-yl)-1H-indazole-6-carboxamide], the half-maximal inhibitory concentration (IC50) was 455 nM. This IC50 and that of the compound before are within 1.5-fold of each other.

In turn, `O=C(NC1CNCCS(=O)(=O)C1)c1ccc2c(-c3ccccc3Cl)nn(-c3ccc(F)cc3)c2c1` (racemic) [Example 102, 3-(2-chlorophenyl)-N-(1,1-dioxido-1,4-thiazepan-6-yl)-1-(4-fluorophenyl)-1H-indazole-6-carboxamide] showed a concentration for half-maximal inhibition (IC50) of 179 nM.

In the case of `COc1cc(C#N)cc(-c2nn(-c3ccc(F)cc3)c3cc(C(=O)NC4(C)CCS(=O)(=O)C4)ccc23)c1F` (single isomer, unassigned) [Example 161-B, 3-(5-cyano-2-fluoro-3-methoxyphenyl)-1-(4-fluorophenyl)-N-(3-methyl-1,1-dioxidotetrahydrothiophen-3-yl)-1H-indazole-6-carboxamide], the IC50 was determined as 28 nM.

For `O=C(NC(CO)(CO)CO)c1ccc2c(-c3ccccc3Cl)nn(-c3ccc(F)cc3)c2c1` [Example 85, 3-(2-chlorophenyl)-1-(4-fluorophenyl)-N-[2-hydroxy-1,1-bis(hydroxymethyl)ethyl]-1H-indazole-6-carboxamide], the IC50 is 432 nM.

Compound `Cn1ccc(-n2nc(-c3ccccc3Cl)c3ccc(C(=O)NC4(C)CCS(=O)(=O)C4)cc32)n1` (racemic) [Example 184, 3-(2-chlorophenyl)-N-(3-methyl-1,1-dioxidotetrahydrothiophen-3-yl)-1-(1-methyl-1H-pyrazol-3-yl)-1H-indazole-6-carboxamide] displayed an IC50 of 201 nM.

By IC50 is commonly meant the concentration that inhibits the measured activity by half.
